Active and inactive are the calls of the source.
Legend:
[1] = molecular target: Luciferin 4-monooxygenase (Photinus pyralis, UniProt P08659); assay: Counter Screen for Luciferase-based Assay Positives. [Related pubchem assays: 620, 618, 411 ]
HT-1080 = assay: cytotoxicity in HT1080 fibrosarcoma cells, cell-based, fluorescence readout (AID 620); assay type: functional; details: Homo sapiens
[2] = molecular target: NAD-dependent protein deacylase sirtuin-5, mitochondrial (Homo sapiens, UniProt Q9NXA8); assay: SIRT5 desuccinylase inhibitors, dose response, biochemical, fluorescence imaging, cherry-pick, set 5 (AID 720591);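 also: desuccinylation of succinyl peptide AMC substrate read as fluorescence after trypsin release; potency of inhibitors that lower fluorescence and may act on trypsin instead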
[3] = Shn3 3'UTR reporter inhibitors, dose response, cell-based, Clone20 osteoblasts, firefly luciferase, cherry-picked (AID 624132); assay type: functional;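 also: firefly luciferase luminescence from reporter carrying the Shn3 3'UTR in osteoblasts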
[4] = reduction of Shn3 3'UTR firefly luciferase signal, dose response, Schnurri-3 inhibitor project, cell-based, Clone20 osteoblasts, cherry-pick, set 2 (AID 720490); assay type: functional;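 also: actives lower the luminescence signal as inhibitors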
[5] = cytotoxicity toward NIH3T3 fibroblasts, dose response, counter-screen, cell-based, ATP luminescence, mouse fibroblasts (AID 2010); assay type: functional;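 also: cells exposed to compound for about 90 hours before reading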
[6] = inhibitors of intracellular T. cruzi replication, confirmation, NIH3T3 host cells, beta-gal luminescence (AID 2044); assay type: functional, cell-based;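 also: intracellular parasites grown in NIH/3T3 mouse fibroblasts as host cells; luminescent beta-galactosidase reporter signal from transgenic T. cruzi replicating inside host cells; inhibitors lower the luminescence signal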
[7] = molecular target: Metabotropic glutamate receptor 5 (Rattus norvegicus, UniProt P31424); assay: Identification of a glycine sulfonamide based non-MPEP site positive allosteric potentiator (PAM) of mGlu5 (calcium_assay).; assay type: functional
Aspartyl aminopeptidase = molecular target: T1, Aspartyl aminopeptidase (Plasmodium falciparum 3D7, UniProt Q8I2J3); assay: Counterscreen for inhibitors of M1 and M17 aminopeptidases: QFRET-based biochemical high throughput dose response assay for inhibitors of the Plasmodium falciparum M18 Aspartyl Aminopeptidase (PFM18AAP). [Related PubChem assays: 1619 (Screening assay (M17LAP inhibitors).), 1445 (Screening assay (M1AAP inhibitors).)]
T1 sequence (Q8I2J3 whole entry): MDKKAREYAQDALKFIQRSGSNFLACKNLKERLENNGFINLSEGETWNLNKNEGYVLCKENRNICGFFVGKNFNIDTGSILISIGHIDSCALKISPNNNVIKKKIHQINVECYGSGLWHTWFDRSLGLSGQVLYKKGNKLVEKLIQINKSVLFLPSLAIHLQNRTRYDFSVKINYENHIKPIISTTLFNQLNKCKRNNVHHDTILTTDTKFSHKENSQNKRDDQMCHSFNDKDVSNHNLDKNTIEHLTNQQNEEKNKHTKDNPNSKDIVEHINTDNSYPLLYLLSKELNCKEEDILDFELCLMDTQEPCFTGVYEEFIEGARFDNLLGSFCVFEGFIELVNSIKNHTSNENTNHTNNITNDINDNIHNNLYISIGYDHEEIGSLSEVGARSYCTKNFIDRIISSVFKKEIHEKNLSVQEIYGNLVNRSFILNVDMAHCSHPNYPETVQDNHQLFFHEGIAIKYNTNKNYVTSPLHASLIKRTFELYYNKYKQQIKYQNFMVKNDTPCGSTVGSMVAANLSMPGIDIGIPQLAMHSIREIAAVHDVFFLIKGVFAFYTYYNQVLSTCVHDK

Procathepsin L = Procathepsin L (Homo sapiens, UniProt P07711); assay: cathepsin L inhibitors, dose response, counter-screen for M1/M17 aminopeptidase inhibitor project, biochemical, QFRET, 1536-well (AID 2214)
Leucine aminopeptidase = molecular target: T2, Leucine aminopeptidase (Plasmodium falciparum 3D7, UniProt Q8IL11); assay: P. falciparum M17LAP inhibitors, primary screen, biochemical, fluorogenic H-Leu-NHMec substrate, 1536-well (AID 1619); assay type: functional
T2 sequence (Q8IL11 whole entry): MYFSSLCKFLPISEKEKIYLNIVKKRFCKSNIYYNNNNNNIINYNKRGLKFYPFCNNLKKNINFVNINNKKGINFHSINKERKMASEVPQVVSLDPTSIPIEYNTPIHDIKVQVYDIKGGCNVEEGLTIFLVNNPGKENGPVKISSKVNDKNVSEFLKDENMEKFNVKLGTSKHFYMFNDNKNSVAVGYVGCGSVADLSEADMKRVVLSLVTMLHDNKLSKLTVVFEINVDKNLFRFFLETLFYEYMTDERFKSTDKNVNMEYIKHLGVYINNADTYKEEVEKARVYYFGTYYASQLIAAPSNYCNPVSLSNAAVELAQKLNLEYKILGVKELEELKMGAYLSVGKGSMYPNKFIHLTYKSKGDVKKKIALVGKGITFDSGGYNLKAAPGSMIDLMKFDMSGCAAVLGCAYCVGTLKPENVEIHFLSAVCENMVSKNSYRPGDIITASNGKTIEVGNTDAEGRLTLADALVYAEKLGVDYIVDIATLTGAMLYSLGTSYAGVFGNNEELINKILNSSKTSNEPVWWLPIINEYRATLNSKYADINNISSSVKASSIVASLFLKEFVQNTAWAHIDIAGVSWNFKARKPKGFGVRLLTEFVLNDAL

Estrogen receptor = molecular target: T3, Estrogen receptor (Homo sapiens, UniProt P03372);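 also: potency for inhibiting coactivator peptide recruitment to the receptor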
T3 sequence (P03372 whole entry): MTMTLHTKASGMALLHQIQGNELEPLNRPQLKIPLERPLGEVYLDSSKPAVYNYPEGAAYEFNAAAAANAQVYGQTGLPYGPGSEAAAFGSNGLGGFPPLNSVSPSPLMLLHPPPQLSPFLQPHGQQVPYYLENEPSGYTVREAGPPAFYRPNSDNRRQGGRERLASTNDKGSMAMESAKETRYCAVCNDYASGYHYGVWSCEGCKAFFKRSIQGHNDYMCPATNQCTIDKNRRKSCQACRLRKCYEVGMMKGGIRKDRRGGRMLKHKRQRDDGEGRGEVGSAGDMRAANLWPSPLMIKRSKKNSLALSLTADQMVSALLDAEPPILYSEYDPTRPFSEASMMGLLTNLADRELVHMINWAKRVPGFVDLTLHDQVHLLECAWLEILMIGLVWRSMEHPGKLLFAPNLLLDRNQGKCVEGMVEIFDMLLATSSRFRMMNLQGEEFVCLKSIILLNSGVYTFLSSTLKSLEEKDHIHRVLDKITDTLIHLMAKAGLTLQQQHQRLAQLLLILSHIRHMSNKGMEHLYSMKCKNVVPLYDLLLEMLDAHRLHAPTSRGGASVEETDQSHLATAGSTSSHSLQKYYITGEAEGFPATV

[8] = molecular target: T4, Corticotropin-releasing factor receptor 2/Corticotropin-releasing factor-binding protein (Homo sapiens, UniProt P24387+Q13324); assay: activators of CRF receptor 2 with binding protein – uHTS hits, confirmation (AID 602473); assay type: functional; details: read-out: EC50_Mean
T4 sequence (Q13324 whole entry): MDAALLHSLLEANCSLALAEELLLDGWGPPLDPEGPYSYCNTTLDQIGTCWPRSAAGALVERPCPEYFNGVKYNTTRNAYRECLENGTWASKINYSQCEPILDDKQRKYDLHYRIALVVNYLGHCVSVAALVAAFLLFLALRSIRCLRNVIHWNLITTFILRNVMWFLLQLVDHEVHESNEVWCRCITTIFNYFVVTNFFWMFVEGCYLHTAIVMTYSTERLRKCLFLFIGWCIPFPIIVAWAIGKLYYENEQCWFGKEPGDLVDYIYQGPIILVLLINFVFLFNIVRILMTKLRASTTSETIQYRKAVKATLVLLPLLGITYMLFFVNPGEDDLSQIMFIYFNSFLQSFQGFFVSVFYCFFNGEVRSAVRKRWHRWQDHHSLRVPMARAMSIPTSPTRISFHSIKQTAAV
T4 sequence (P24387 whole entry): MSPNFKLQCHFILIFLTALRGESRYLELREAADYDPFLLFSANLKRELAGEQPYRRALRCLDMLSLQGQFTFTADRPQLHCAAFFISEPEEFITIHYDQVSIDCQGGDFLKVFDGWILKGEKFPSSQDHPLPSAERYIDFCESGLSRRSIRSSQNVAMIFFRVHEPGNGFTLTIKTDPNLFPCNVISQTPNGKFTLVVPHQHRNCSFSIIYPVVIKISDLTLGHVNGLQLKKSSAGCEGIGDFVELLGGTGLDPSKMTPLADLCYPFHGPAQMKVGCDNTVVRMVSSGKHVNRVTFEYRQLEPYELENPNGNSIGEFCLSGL

[9] = molecular target: Glyceraldehyde-3-phosphate dehydrogenase (Homo sapiens, UniProt P04406)
Glyceraldehyde-3-phosphate dehydrogenase, sequence (P04406 whole entry): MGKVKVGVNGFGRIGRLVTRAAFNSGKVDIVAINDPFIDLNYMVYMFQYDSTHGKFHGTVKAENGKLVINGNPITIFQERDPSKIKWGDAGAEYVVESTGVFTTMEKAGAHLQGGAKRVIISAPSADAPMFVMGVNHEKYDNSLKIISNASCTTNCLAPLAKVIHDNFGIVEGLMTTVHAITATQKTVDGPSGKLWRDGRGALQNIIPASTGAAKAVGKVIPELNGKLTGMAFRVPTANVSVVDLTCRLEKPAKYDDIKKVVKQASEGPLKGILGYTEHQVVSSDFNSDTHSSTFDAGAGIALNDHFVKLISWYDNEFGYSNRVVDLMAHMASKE

Luciferin 4-monooxygenase, sequence (P08659 whole entry): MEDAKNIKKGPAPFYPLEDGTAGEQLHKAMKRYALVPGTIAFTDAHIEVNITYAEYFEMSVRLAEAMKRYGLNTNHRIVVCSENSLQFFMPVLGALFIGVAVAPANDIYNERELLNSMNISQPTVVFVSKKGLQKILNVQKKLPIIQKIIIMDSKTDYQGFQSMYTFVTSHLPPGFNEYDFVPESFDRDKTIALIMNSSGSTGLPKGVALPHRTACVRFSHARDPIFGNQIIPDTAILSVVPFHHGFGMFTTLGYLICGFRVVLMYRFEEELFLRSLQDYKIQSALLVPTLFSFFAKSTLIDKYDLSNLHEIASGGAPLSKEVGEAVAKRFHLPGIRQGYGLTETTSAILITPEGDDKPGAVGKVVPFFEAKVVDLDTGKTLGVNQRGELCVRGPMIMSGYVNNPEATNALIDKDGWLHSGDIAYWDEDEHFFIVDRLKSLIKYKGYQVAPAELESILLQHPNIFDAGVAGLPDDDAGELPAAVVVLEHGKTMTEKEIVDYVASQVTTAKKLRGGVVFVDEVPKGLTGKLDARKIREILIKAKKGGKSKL
Metabotropic glutamate receptor 5, sequence (P31424 whole entry): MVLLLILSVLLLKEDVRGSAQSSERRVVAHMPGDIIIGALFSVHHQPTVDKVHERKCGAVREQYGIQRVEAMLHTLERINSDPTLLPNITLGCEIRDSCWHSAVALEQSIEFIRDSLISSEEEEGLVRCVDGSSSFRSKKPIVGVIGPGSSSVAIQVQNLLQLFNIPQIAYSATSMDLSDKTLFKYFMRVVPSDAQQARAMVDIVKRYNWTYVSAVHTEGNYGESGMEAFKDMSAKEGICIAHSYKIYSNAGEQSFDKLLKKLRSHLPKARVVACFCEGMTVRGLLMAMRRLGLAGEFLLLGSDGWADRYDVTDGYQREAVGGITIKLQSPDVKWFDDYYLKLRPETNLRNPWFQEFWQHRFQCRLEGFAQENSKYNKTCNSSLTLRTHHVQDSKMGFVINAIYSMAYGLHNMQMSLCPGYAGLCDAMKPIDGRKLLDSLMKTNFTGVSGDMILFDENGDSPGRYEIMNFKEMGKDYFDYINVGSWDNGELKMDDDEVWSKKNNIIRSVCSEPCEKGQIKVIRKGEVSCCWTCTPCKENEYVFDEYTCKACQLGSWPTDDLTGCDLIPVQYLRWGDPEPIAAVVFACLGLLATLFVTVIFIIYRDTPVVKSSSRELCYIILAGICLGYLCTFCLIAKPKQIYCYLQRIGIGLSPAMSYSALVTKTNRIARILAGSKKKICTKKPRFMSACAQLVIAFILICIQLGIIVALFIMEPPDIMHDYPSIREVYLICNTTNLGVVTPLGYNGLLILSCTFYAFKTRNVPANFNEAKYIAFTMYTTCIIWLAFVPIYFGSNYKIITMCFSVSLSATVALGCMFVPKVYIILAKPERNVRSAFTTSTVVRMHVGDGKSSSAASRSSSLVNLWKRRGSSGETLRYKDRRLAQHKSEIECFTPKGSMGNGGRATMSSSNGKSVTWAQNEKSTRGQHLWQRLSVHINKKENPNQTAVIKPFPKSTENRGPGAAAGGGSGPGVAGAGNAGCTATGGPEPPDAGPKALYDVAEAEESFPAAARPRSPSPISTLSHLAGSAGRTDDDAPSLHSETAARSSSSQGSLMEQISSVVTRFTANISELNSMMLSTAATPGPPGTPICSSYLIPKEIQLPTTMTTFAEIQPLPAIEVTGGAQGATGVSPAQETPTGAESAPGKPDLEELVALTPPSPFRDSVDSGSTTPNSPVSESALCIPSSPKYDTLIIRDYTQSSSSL
NAD-dependent protein deacylase sirtuin-5, mitochondrial, sequence (Q9NXA8 whole entry): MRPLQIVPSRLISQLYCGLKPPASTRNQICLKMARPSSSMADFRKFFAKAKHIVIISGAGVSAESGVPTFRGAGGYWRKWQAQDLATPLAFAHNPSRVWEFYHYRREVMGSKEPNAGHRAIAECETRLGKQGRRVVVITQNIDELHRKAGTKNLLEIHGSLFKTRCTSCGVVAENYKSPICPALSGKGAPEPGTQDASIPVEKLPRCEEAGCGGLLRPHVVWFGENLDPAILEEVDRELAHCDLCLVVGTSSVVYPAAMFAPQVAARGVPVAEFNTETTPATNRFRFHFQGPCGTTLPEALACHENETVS
Procathepsin L, sequence (P07711 whole entry): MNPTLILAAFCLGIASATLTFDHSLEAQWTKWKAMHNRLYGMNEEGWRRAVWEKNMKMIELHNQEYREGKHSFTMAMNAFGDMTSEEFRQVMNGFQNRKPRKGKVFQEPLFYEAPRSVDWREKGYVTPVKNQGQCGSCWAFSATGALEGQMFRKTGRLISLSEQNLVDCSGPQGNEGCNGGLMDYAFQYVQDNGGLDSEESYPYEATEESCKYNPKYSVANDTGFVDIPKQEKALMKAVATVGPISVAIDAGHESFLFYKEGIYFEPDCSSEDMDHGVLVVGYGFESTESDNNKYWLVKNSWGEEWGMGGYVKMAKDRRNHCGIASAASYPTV

Question: For `CCCCN(C)C(=O)c1cc2cc3ccc(OC)cc3nc2s1`, which EC50 [1] is on record?
Answer: 0.22 µM (active)

Question: What about the EC50 (HT-1080) of the same compound?
Answer: > 50 µM (not active)

Question: For `Cc1cc(=O)oc2c(C)c(OC(C)C(=O)NCCCN3CCCC3=O)ccc12` (stereo not given), which AC50 [2] is on record?
Answer: > 30 µM (inactive)

Question: Which AC50 [3] does the source give for `CCCCN1CC(COCc2ccccc2)Oc2cccc(Oc3ccc(C(C)C)cc3)c2S1(=O)=O` (stereo not given) here?
Answer: 5.03 µM (active)

Question: And the AC50 [4]?
Answer: 4.4 µM (active)

Question: Which results are given for `O=C(CCCn1cnc([N+](=O)[O-])n1)Nc1ccc(F)c(Cl)c1`?
Answer: EC50 [5]: > 60 µM (not active); EC50 [6]: < 0.1 µM (active); EC50 (cells): 0.098 µM (active)

Question: Which EC50 [7] does the source give for `CS(=O)(=O)N(CC(=O)Nc1ccccc1)c1ccccc1Cl` here?
Answer: 0.049 µM

Question: With `C=CCn1c(SCC(=O)Nc2cccc3ccccc23)nc(=O)c(CC)c1O` as the compound, how does the IC50 (Aspartyl aminopeptidase) read?
Answer: > 73.5 µM (not active)

Question: What about the IC50 (Procathepsin L) of the same compound?
Answer: > 59.6 µM (not active)

Question: What about the IC50 (Leucine aminopeptidase) of the same compound?
Answer: 4.06 µM (active)

Question: Which IC50 (Estrogen receptor) does the source give for `O=S(=O)(NCc1csc(-c2cccnc2)n1)c1cccs1` here?
Answer: 18 µM (active)

Question: With `CC(C)Oc1ccc(CNCCC2(C(C)C)CCOC(C)(C)C2)cc1` (stereo not given) as the compound, how does the EC50 [5] read?
Answer: > 60 µM (not active)

Question: What about the EC50 [6] of the same compound?
Answer: < 0.1 µM (active)

Question: What about the EC50 (cells) of the same compound?
Answer: 0.154 µM (active)

Question: With `COCCn1c(C)cc(C(=O)CSc2ccc(NC(C)=O)cc2)c1C` as the compound, how does the EC50 [8] read?
Answer: > 53 µM (inactive)

Question: And the EC50 [1]?
Answer: 3.66 µM (active)

Question: What about the EC50 (HT-1080) of the same compound?
Answer: > 50 µM (not active)

Question: And the IC50 [9]?
Answer: > 100 µM (not active)

Source: ChEMBL document CHEMBL1201862, “PubChem BioAssay data set” (2004)
